According to patent publication US6495594B2, “Biologically active analogs of discodermolide” (Harbor Branch Oceanographic Institution, Inc., priority 2000, dated 2002):
pIC50: −log10 of the molar value.

What was measured:
[1] = test system: P388 murine leukemia cell lines; assay: In vitro proliferation of P388 cells (MTT); type: cell-based; conditions: for pIC50: value in parentheses
Procedure: (§1) Discodermolide and discodermolide analogs were analyzed as to their effects on proliferation of A549 human adenocarcinoma and P388 murine leukemia cell lines. P388 cells were obtained from Dr. R. Camalier, National Cancer Institute, Bethesda, MD, and A549 cells were obtained from American Type Culture Collection, Rockville, MD. All cell lines were maintained in tissue culture medium (TCM; Roswell Park Memorial Institute RPMI 1640 supplemented with 100 U/mL penicillin, […], 60 […], 18 mM HEPES, 0.05 mg/mL gentamicin (Life Technologies, Gaithersburg, MD) and 10% fetal bovine serum) and cultured in plastic tissue culture flasks at 37° C. in humidified air containing 5% CO2. Stock cultures of P388 cells were subcultured 1:20 in fresh TCM every 2 to 3 days. Stock cultures of A549 cells were subcultured 1:10 every 3 to 4 days. To assess the antiproliferative effects of agents against the cells, 200 μL cultures (96-well tissue culture plates, Nunc, Denmark) were established at 1 ×10^5 cells/mL in TCM or TCM containing the test agent at 0.03-5.0 μg/mL. After 48-h exposures, P388 cells were enumerated using 3-[4,5-dimethylthiazol-2-yl]-2,5-diphenyltetrazolium bromide (MTT) as described in the literature (M. C. Alley, et al., Cancer Res. 48:589, 1988). A549 cells were enumerated in the same manner after 72 hours exposure. The results were expressed as percent inhibition compared to the negative (no drug) control. Positive drug controls of varying dilutions of 5-fluorouracil and adriamycin (Sigma Chemical Co., St Louis, MO) were included to monitor drug sensitivity of the cell line.
(§2) To quantitate the effects on cell proliferation and resulting IC50 values, 75 μL of warm growth media containing 5 mg/mL MTT is added to each well, cultures returned to the incubator, and left undisturbed for 3 hours. To spectrophotometrically quantitate formation of reduced formazan, plates are centrifuged (500×g, 10 minutes), culture fluids removed by aspiration, and 200 μL of acidified isopropanol (2 mL concentrated HCl /liter isopropanol) added per well. The absorbance of the resulting solutions is measured in a plate reader (TECAN Spectra SLT; TECAN U.S., Research Triangle Park, N.C.) at 570 nm and a 650 nm reference filter. The absorbance of test wells is divided by the absorbance of drug-free wells, and the concentration of agent that results in 50% of the absorbance of untreated cultures (IC50) is determined by linear regression of logit-transformed data (D. J. Finney, Statistical Method in Biological Assay, third ed., pp. 316-348, Charles Griffin Co., London, 1978). A linear relationship between tumor cell number and formazan production has been routinely observed over the range of cell densities observed in these experiments. The two standard drug controls (indicated above) are included in each assay as a check to monitor the drug sensitivity of each of the cell lines and IC50 values are determined for each drug-cell combination.

[2] = test system: A549 human adenocarcinoma; assay: In vitro proliferation of A549 cells (MTT); type: cell-based; conditions: for pIC50: value in parentheses
Procedure: as §1, §2

[3] = test system: A549 human adenocarcinoma tumor cells; assay: Microtubule bundling patterns in tumor cells by immunofluorescence; type: cell-based; parameters: key to Microtubule bundling in A549 cells: −: no effect; +/−: minimal or questionable effect; +: weak effect; ++: strong effect; +++: very strong effect equivalent to discodermolide; conditions: subjective rating versus discodermolide
Procedure: Discodermolide and discodermolide analogs were evaluated as to their effects on the morphology of the microtubule network of cells using mouse anti-alpha-tubulin monoclonal antibody.
On day one, 7×10^4 adherent A549 human adenocarcinoma tumor cells were cultured in TCM overnight at 37° C. in 5% CO2 on 22 mm^2 cover slips in 6-well microtiter plates. On day two, TCM was removed and replaced with 10-1000 nM discodermolide or analog in TCM or TCM without drug (control) and incubated overnight at 37° C. in 5% CO2. On day three, TCM was removed and cells attached to cover slips were fixed with a 3.7% formaldehyde solution in Dulbecco's PBS for 10 minutes at room temperature. Cells were permeabilized with a 2% Triton X-100 solution, 2 mL per well, for 5 minutes at room temperature and washed twice in Dulbecco's PBS prior to staining.
To each well containing cells attached to cover slips a 2 mL volume of mouse anti- alpha-tubulin monoclonal antibody (Cat# T-5168, Sigma Chemical Co., St. Louis, Mo.) diluted 1:1000 in Dulbecco's phosphate buffered saline (D-PBS) was added and the cells incubated at room temperature for 45 minutes. Cover slips were rinsed once with D-PBS. A 2 mL volume of goat-anti-mouse-IgG-FITC conjugated antibody (Cat# T-5262, Sigma Chemical Co., St. Louis, Mo.) diluted 1:1000 in D-PBS was added and the cells incubated at room temperature for 45 minutes. Cover slips were rinsed once in D-PBS and DNA was stained with 0.02 mg/mL propidium iodide together with 0.1 mg/mL of ribonuclease A (RNAse) A in D-PBS at 37° C. for 30 minutes. Cover slips were rinsed three times with sterile distilled water, air-dried and mounted on slides with SlowFade™ antifade solution (Molecular Probes, Eugene, Oreg.) and observed under the microscope using epifluorescence illumination for the presence of abnormal aster and microtubule bundle formations.

[4] = test system: purified bovine brain tubulin; assay: Tubulin polymerization (optical density at 350 nm); type: biochemical; parameters: key to Purified tubulin polymerization by 10 μM / Purified tubulin polymerization at 10 μM: −: no effect; +/−: minimal or questionable effect; +: weak effect; ++: strong effect; +++: very strong effect equivalent to discodermolide; conditions: 10 μM compound, 1 mg/mL tubulin; for Purified tubulin polymerization, temperature at which polymerization commences: temperature ramp 4 to 35° C.; for Purified tubulin polymerization at 10 μM: Table 12
Procedure: (§3) Compounds were tested at 10 μM with 1 mg/mL tubulin. The temperature was varied during the course of the experiment as follows: the experiment was begun with an initial temperature of 4° C. and held for 1 minute; the temperature was then increased to 35° C. at a rate of 1° C./minute, held at 35° C. for 1 minute, decreased to 4° C. at a rate of 2° C/minute, and finally held at 4° C. for 14 minutes. The curves shown are for compounds: discodermolide (I); 2-desmethyldiscodermolide (II); 19-desaminocarbonyldiscodermolide (III); 2-epidiscodermolide (IV); and 3-deoxy-2A-discodermolide (VI).
as §3, with “C./minute,” for “C/minute,”, “for” for “for compounds:”, “8,21,23-hexahydrodiscodermolide (XII)” for “2-desmethyldiscodermolide (II); 19-desaminocarbonyldiscodermolide (III); 2-epidiscodermolide (IV);”, “7-deoxy-8,21,23-hexahydrodiscodermolide (XIII).” for “3-deoxy-2A-discodermolide (VI).”
Polymerization of purified bovine brain tubulin (Cytoskeleton Inc., Denver, Colo.) was followed by changes in the optical density of tubulin solutions at 350 nm in a Hitachi U-3010 spectrophotometer equipped with a SPR-10 electronic thermostatted cell holder. Stock solutions of tubulin were diluted on ice in G-PEM buffer (1 mM GTP, 80 mM PIPES, 1 mM EGTA, 0.5 mM magnesium chloride; pH 6.8) to a final concentration of 1 mg/mL. The instrument was zeroed on this solution at 4° C. Discodermolide, and its analogs, were then added to the tubulin solution to a final concentration of 10 μM, quickly mixed, and the absorbance monitored over a period of 61 minutes. Within this time the temperature of the thermoelectric cell holder was held at 4° C. for 1 minute, increased to 35° C. at a rate of 1° C./minute, reduced back to 4° C. at a rate of 2° C./minute, and held at 4° C. for an additional 14 minutes.

[5] = Mus musculus, P388, 48-h exposure
[6] = Homo sapiens, A549, 72 hours exposure

Compound	IC50 P388 cells ([1]; 48-h exposure)	pIC50 ([1]; 48-h exposure)	IC50 A549 cells ([2]; 72 hours exposure)	pIC50 ([2]; 72 hours exposure)	Microtubule bundling in A549 cells ([3]; Table 12)	Purified tubulin polymerization, temperature at which polymerization commences [4]	Purified tubulin polymerization at 10 μM ([4]; subjective rating)	IC50 [1, 5]	pIC50 [1, 5]	IC50 [2, 6]	pIC50 [2, 6]	Microtubule bundling in A549 cells ([3]; Table 11)	Purified tubulin polymerization by 10 μM ([4]; subjective rating, Table 11)
C=CC=CC(C)C(OC(N)=O)C(C)C(O)C(C)CC(C)=CC(C)C(O)C(C)C=CC(O)CC1OC(=O)C(C)=CC1C (centres unmarked) [3-Deoxy-2Δ-discodermolide (VI), 3-deoxy-2Δ-discodermolide]	0.02 µg/mL	7.47	0.0125 µg/mL	7.66	+++	21 °C	+						
C=CC=CC(C)C(OC(N)=O)C(C)C(OC(C)=O)C(C)CC(C)=CC(C)C(OC(C)=O)C(C)C=CC(CC1OC(=O)C(C)=CC1C)OC(C)=O (centres unmarked) [3-deoxy-2Δ-discodermolide-7,11,17-triacetate]	4.96 µg/mL	5.15	>5 µg/mL	< 5.15	−		−						
C=C/C=C\[C@H](C)[C@H](OC(N)=O)[C@@H](C)[C@H](O)[C@@H](C)C/C(C)=C\[C@H](C)[C@@H](O)[C@@H](C)/C=C\[C@@H](O)C[C@@H]1OC(=O)[C@H](C)[C@@H](O)[C@H]1C [Discodermolide (I), discodermolide]						4 °C		0.021 µg/mL	7.46	0.008 µg/mL	7.87	+++	+++
C=CC=CC(C)C(OC(N)=O)C(C)C(OC(C)=O)C(C)CC(C)=CC(C)C(OC(C)=O)C(C)C=CC(O)CC1OC(=O)C(C)=CC1C (centres unmarked) [3-deoxy-2Δ-discodermolide-11,17-diacetate]	>5 µg/mL	< 5.12	>5 µg/mL	< 5.12	−		−						
Methyldiscodermolate [Methyldiscodermolate (V)]	0.04 µg/mL	7.18	0.045 µg/mL	7.13		(12° C.)						+	
C=CC=CC(C)C(OC(N)=O)C(C)C(OC(C)=O)C(C)CC(C)=CC(C)C(O)C(C)C=CC(O)CC1OC(=O)C(C)=CC1C (centres unmarked) [3-deoxy-2Δ-discodermolide-17-acetate]	>5 µg/mL	< 5.09	>5 µg/mL	< 5.09	−		−						
C=CC=CC(C)C(OC(N)=O)C(C)C(O)C(C)CC(C)=CC(C)C(OC(C)=O)C(C)C=CC(O)CC1OC(=O)C(C)=CC1C (centres unmarked) [3-Deoxy-2Δ-discodermolide-11-acetate (X), 3-deoxy-2Δ-discodermolide-11-acetate]	0.32 µg/mL	6.28	1.93 µg/mL	5.50	−		−						
